pEC50, pKd: −log10 of the molar value. Where two headings read alike, the source gives them in different places. Where a SMILES comes first, the peptide text is derived from it. [ ]: non-standard residue; d: D form. The star is where a group is joined. Dolaproine = CO[C@@H]([C@@H]1CCCN1)[C@@H](C)C(=O)O; Dil = CC[C@H](C)[C@H](NC)[C@@H](CC(=O)O)OC; X2 = CNc1ccc(CCN(C)[C@H](C(=O)*)C(C)C)cc1; X3 = CC(C)C(C(=O)*)N(C)CCc1ccc(C(=O)O)cc1; X1 = CC(C)[C@@H](C(=O)*)N(C)Cc1cccc(N)c1

The test system of test [1] is MDA-MB-231 cells. The test can be described thus: ATPlite antiproliferative assay, MDA-MB-231. Type of test: cell-based. The following applies: Homo sapiens; for EC50: read-out: EC50 (M) MDA-MB-231; for pEC50: read-out: EC50. The procedure:
(§1) A549 (Non Small Cell Lung Cancer—ATCC CCL-185) and MDA-MB-231 (breast adenocarcinoma—ATCC HTB-26) cells were cultured in Minimum Essential Medium Eagle (MEM) with 5% fetal calf serum (FCS) and Dulbecco's modified Eagle Medium (DMEM) with 10% FCS respectively. MCF7 (breast ductal carcinoma—ATCC HTB-22) and SN-12C (kidney carcinoma—ATCC) cells were maintained in RPMI1640 medium (without phenol red for MCF7 cells) containing 10% FCS. All the media were supplemented with fungizone (1.25 μg/mL) and penicillin-streptomycin (100 U/100 μg/mL). Cells were cultured under standard conditions in an incubator at 37° C., 5% CO2 and 95% atmospheric humidity.
(§2) Selected drugs were investigated for their antiproliferative activity using an ATPlite proliferation assay (Perkin Elmer, Villebon sur Yvette, France) on a comprehensive panel of 4 cell lines. Cells were seeded in 96 well plates (10^3 cells/well for A549, 2.10^3 for MCF7, MDA-MB-231 and SN12C) at day 0 at a concentration to ensure cells remained in logarithmic cell growth phase throughout the 72 h drug treatment period. After a 24 h incubation period, all the cells were treated with serial dilutions of the tested compounds (11 μL of a 10× solution in 1% DMSO—6 wells/condition). To avoid adherence of the compounds onto the tips, tips were changed between two consecutive dilutions. Cells were then placed in 37° C., 5% CO2 incubator. On day 4, cell viability was evaluated by dosing the ATP released by viable cells. The number of viable cells was analyzed in comparison with the number of solvent treated cells. The EC50 values were determined with curve fitting analysis (non linear regression model with a sigmoidal dose response, variable hill slope coefficient), performed with the algorithm provided by the GraphPad Software (GraphPad Software Inc., CA, USA).

The test system of test [2] is A549 cells. Nature of the test: ATPlite antiproliferative assay, A549. Type of test: cell-based. The note with it: Homo sapiens; for EC50: A549, read-out: EC50 (M) A549. The procedure:
as §1, §2
A general note: Cellular ATP, detected with luciferase, serves as a proxy for viable cell number.

Test [3] relates to lysosome functions. Nature of the test: inhibition of antibody degradation by lysosome inhibitor. Type of test: cell-based. The note with it: cells with 10 μg/ml Ab, 2 h at 37° C. The procedure:
In order to confirm that second IGF-1R antibodies Ab reached the lysosome were they are degraded, cells were treated or not with bafilomycine A1, a potent inhibitor of lysosome functions. Cells were then incubated with 10 μg/ml of Ab to be tested at 4° C., washed and incubated for 2 h at 37° C. The internalized Ab was detected after cell permeabilisation using a secondary anti-mouse IgG-Alexa 488 Ab.

The target of test [4] is IGF-1R (Homo sapiens, UniProt P08069). The following applies: background statement; cited from earlier work.
Test [5] concerns MCF7 cells. Nature of the test: ATPlite antiproliferative assay, MCF7. Type of test: cell-based. The following applies: Homo sapiens. The procedure: as §1
(§3) Selected drugs were investigated for their antiproliferative activity using an ATPlite proliferation assay (Perkin Elmer, Villebon sur Yvette, France) on a comprehensive panel of 4 cell lines. […] On day 4, cell viability was evaluated by dosing the ATP released by viable cells. The number of viable cells was analyzed in comparison with the number of solvent treated cells. The EC50 values were determined with curve fitting analysis (non linear regression model with a sigmoidal dose response, variable hill slope coefficient), performed with the algorithm provided by the GraphPad Software (GraphPad Software Inc., CA, USA).

Test [6] deals with SN-12C cells. Nature of the test: ATPlite antiproliferative assay, SN12C. The note with it: Homo sapiens. Type of test: cell-based. The procedure: as §1, §3
Setting [7] is: MDA-MB-231, comparative examples table.

On to `CC[C@H](C)[C@@H]([C@@H](CC(=O)N1CCC[C@H]1[C@H](OC)[C@@H](C)C(=O)N[C@@H](Cc1ccccc1)C(=O)O)OC)N(C)C(=O)[C@@H](NC(=O)[C@H](C(C)C)N(C)CCc1ccc(NC)cc1)C(C)C` [Compound 13, (S)-2-((2R,3R)-3-((S)-1-((3R,4S,5S)-4-((S)—N,3-dimethyl-2-((S)-3-methyl-2-(methyl(4-(methylamino)phenethyl)amino)butanamido)butanamido)-3-methoxy-5-methylheptanoyl)pyrrolidin-2-yl)-3-methoxy-2-methylpropanamido)-3-phenylpropanoic acid, trifluoroacetic Acid] (X2-V[Dil][Dolaproine]F-OH), for which the EC50 (commonly the concentration needed to bring the measured effect to its halfway point) was found to be 7.95e-08 M in test [1] (setting [7]) and 2.71e-08 M in test [2] (comparative examples table). Besides, the pEC50 (commonly the negative decadic logarithm of the EC50, by convention in mol/L) in test [1] (MDA-MB-231) is 7.10.
`CO/C1=C\C(C)=C\[C@@H](C)[C@@H](O)[C@@H](C)C/C(C)=C/C=C/[C@H](OC)[C@@H]([C@@H](C)[C@@H](O)[C@H](C)[C@@]2(O)C[C@@H](O)[C@H](C)[C@@H](C(C)C)O2)OC1=O` [bafilomycine A1]: the “effect on degradation of intracellular Ab” value in test [3] was “prevented the degradation of intracellular Ab”.
As to `CC[C@H](C)[C@@H]([C@@H](CC(=O)N1CCC[C@H]1[C@H](OC)[C@@H](C)C(=O)N[C@@H](Cc1ccccc1)C(=O)OC)OC)N(C)C(=O)[C@@H](NC(=O)C(C(C)C)N(C)CCc1ccc(C(=O)O)cc1)C(C)C` (some centres unmarked) [compound 1, reference compound] (X3-V[Dil][Dolaproine]F-OMe), the EC50 in test [1] (setting [7]) came to 2.29e-09 M; in test [2] (comparative examples table), 3.76e-09 M.
Take `CC[C@H](C)[C@@H]([C@@H](CC(=O)N1CCC[C@H]1[C@H](OC)[C@@H](C)C(=O)N[C@@H](Cc1ccccc1)C(=O)OC)OC)N(C)C(=O)[C@@H](NC(=O)[C@H](C(C)C)N(C)CCc1ccc(NC)cc1)C(C)C` [Compound 12, methyl (S)-2-((2R,3R)-3-((S)-1-((3R,4S,5S)-4-((S)—N,3-dimethyl-2-((S)-3-methyl-2-(methyl(4-(methylamino)phenethyl)amino)butanamido)butanamido)-3-methoxy-5-methylheptanoyl)pyrrolidin-2-yl)-3-methoxy-2-methylpropanamido)-3-phenylpropanoate, trifluoroacetic Acid] (X2-V[Dil][Dolaproine]F-OMe): the EC50 in test [1] (setting [7]) was 5.8e-10 M; in test [2] (comparative examples table) it was 1.48e-10 M. In addition, the pEC50 in test [1] (MDA-MB-231) is 9.24.
Consider “IGF2: insulin-like growth factor 2, ligand of IGF-1R”, for which, in test [4], the pKd (commonly −log10 of the Kd, conventionally taken in molar units) was roughly 9.00.
On to `CC[C@H](C)[C@@H]([C@@H](CC(=O)N1CCC[C@H]1[C@H](OC)[C@@H](C)C(=O)N[C@@H](Cc1ccccc1)C(=O)O)OC)N(C)C(=O)[C@@H](NC(=O)C(C(C)C)N(C)CCc1ccc(C(=O)O)cc1)C(C)C` (some centres unmarked) [compound 2, reference compound] (X3-V[Dil][Dolaproine]F-OH), for which the EC50 in test [1] (setting [7]) was 9.75e-07 M; in test [2] (comparative examples table) it was 4.03e-07 M.
Take `CC[C@H](C)[C@@H]([C@@H](CC(=O)N1CCC[C@H]1[C@H](OC)[C@@H](C)C(=O)N[C@@H](Cc1ccccc1)C(=O)OC)OC)N(C)C(=O)[C@@H](NC(=O)[C@H](C(C)C)N(C)Cc1cccc(N)c1)C(C)C` [Compound 15, methyl (S)-2-((2R,3R)-3-((S)-1-((3R,4S,5S)-4-((S)-2-((S)-2-((3-aminobenzyl) (methyl)amino)-3-methylbutanamido)-N,3-dimethylbutanamido)-3-methoxy-5-methylheptanoyl)pyrrolidin-2-yl)-3-methoxy-2-methylpropanamido)-3-phenylpropanoate, trifluoroacetic Acid] (X1-V[Dil][Dolaproine]F-OMe): the 50% effective concentration (EC50) in test [1] (MDA-MB-231, 72 h, 72 h drug treatment) is 1.7e-10 M; in test [1] (setting [7]), 1.7e-10 M; in test [5] (72 h drug treatment, read-out: EC50 (M) MCF-7), 7.15e-10 M; in test [2] (72 h drug treatment) it was 1.45e-10 M; in test [2] (comparative examples table) it was 1.45e-10 M; in test [6] (72 h drug treatment, read-out: EC50 (M) SN12C), 2.18e-10 M. In addition, the pEC50 in test [1] (MDA-MB-231, MDA-MB-231, text bound) was greater than 7.00; in test [1] (MDA-MB-231), 9.77; in test [5] (MCF-7, text bound, read-out: EC50), greater than 7.00; in test [2] (A549, text bound, read-out: EC50), greater than 7.00; in test [6] (text bound, read-out: EC50), greater than 7.00.

The record behind these values is patent publication US10858423B2, “Composition for the treatment of IGF-1R expressing cancer” (PIERRE FABRE MEDICAMENT, priority 2015, dated 2020).
